Assay results from US20250129088A1, “CEREBLON E3 UBIQUITIN LIGASE INHIBITOR” (Gan & Lee Pharmaceuticals Co., Ltd., priority 2022, published 2025).

Key:
Type in all cases: cell-based
[1] = tested on: VCaP cells; assay: VCaP cell proliferation inhibition, CCK-8; settings: Homo sapiens, 168 h, 7 days
Source text: The complete medium required for VCaP cells is DMEM high glucose (Gibco, Product number: 11995-065) basal medium containing 10% fetal bovine serum. […] Cell viability was detected using the CCK-8 kit (Beyotime, Product number: C0040) according to the manufacturer's instructions.

[2] = tested on: LNCaP FGC cells; assay: LNCaP FGC cell proliferation inhibition, CCK-8; settings: Homo sapiens, 96 h, 4 days
Source text: The complete medium required for LNCaP FGC cells is RPMI 1640 (ATCC, Product number: 30-2001) basal medium containing 10% fetal calf serum. […] Cell viability was detected using the CCK-8 kit (Beyotime, Product number: C0040) according to the manufacturer's instructions.

[3] = tested on: MV-4-11 cells; assay: MV-4-11 cell proliferation inhibition, CCK-8; settings: Homo sapiens, MV4-11, 96 h, MV-4-11, 4 days
Experimental: The complete medium required for MV-4-11 cells is IMDM (ATCC, Product number: 30-2005) basal medium containing 10% fetal bovine serum. MV-4-11 cells were seeded in a 96-well plate at a density of 7,500 cells/well, and different concentrations of the compound of the present invention and positive control samples Alisertib (source: Bide Pharmaceuticals), Palbociclib (source: Bide Pharmaceuticals), Ibrutinib (source Bide Pharmaceuticals) treated cells. The cells were incubated in a 37° C., 5% CO2 cell incubator for 4 days. Cell viability was detected using the CCK-8 kit (Beyotime, Product number: C0040) according to the manufacturer's instructions. According to the inhibition rate, GraphPad Prism software was used to calculate the IC50 value of each compound for 4 days, and the results are shown in Table 6-8.

[4] = Table 6, positive control Alisertib
[5] = Table 7, positive control Palbociclib

N#Cc1ccc(O[C@H]2CC[C@H](NC(=O)c3ccc(N4CCC5(CC4)CC(N4CCC6(CC4)COc4cc7c(cc46)C(=O)N(C4CCC(=O)NC4=O)C7=O)C5)nn3)CC2)cc1Cl (stereo partly shown) [PROTAC 63]
IC50 [1]: 51 nM | IC50 [2]: 0.17 µM

COC1(CN2CC3(CCc4cc5c(cc4O3)CN(C3CCC(=O)NC3=O)C5=O)C2)CCN(C(=O)c2ccc(N3C(=S)N(c4ccc(C#N)c(C(F)(F)F)c4)C(=O)C3(C)C)cc2F)CC1 (stereo not shown) [PROTAC 76]
IC50 [1]: 350 nM | IC50 [2]: 3.24 µM

CC1(C)C(=O)N(c2ccc(C#N)c(C(F)(F)F)c2)C(=S)N1c1ccc(C(=O)N2CCC(F)(CN3CCC4(CCc5cc6c(cc5O4)C(=O)N(C4CCC(=O)NC4=O)C6=O)CC3)CC2)c(F)c1 (stereo not shown) [PROTAC 82]
IC50 [1]: 1300 nM

COc1cc(Nc2ncc3c(n2)-c2ccc(Cl)cc2C(c2c(F)cccc2OC)=NC3)ccc1C(=O)N1CCC2(CC1)COc1cc3c(cc1O2)CN(C1CCC(=O)NC1=O)C3=O (stereo not shown) [PROTAC 2, 3-(1-(4-((9-chloro-7-(2-fluoro-6-methoxyphenyl)-5H-benzo[c]pyrimido[4,5-e]azepine-2-yl)amino)-2-methoxybenzoyl)-6′-oxo-6′,8′-dihydro-3′H,7′H-spiro[piperidine-4,2′-[1,4]dioxino[2,3-f]isoindole]-7′-yl)piperidine-2,6-dione]
IC50 [3, 4]: 81 nM

N#Cc1ccc(O[C@H]2CC[C@H](NC(=O)c3ccc(N4CCC(CN5CCC6(CC5)COc5cc7c(cc5O6)CN(C5CCC(=O)NC5=O)C7=O)CC4)nn3)CC2)cc1Cl (stereo partly shown) [PROTAC 65]
IC50 [1]: 1.1 nM | IC50 [2]: 2.37 µM

CC(=O)c1c(C)c2cnc(Nc3ccc(N4CCNCC4)cn3)nc2n(C2CCCC2)c1=O [Palbociclib, reference compound]
IC50 [3, 5]: 2090 nM

COc1cc(Nc2ncc3c(n2)-c2ccc(Cl)cc2C(c2c(F)cccc2OC)=NC3)ccc1C(=O)NCCOCCC(=O)N1CC2(CCc3cc4c(cc3O2)C(=O)N(C2CCC(=O)NC2=O)C4=O)C1 (stereo not shown) [PROTAC 8, 4-((9-chloro-7-(2-fluoro-6-methoxyphenyl)-5H-benzo[c]pyrimido[4,5-e]azepine-2-yl)amino)-N-(2-(3-(7′-(2,6-dioxopiperidin-3-yl)-6′,8′-dioxo-4′,6′,7′,8′-tetrahydro-3′H-spiro[azetidine-3,2′-pyrano[2,3-f]isoindol]-1-yl)-3-oxopropoxy)ethylbase)-2-methoxybenzamide]
IC50 [3, 4]: 380 nM

CC1(C)C(=O)N(c2ccc(C#N)c(C(F)(F)F)c2)C(=S)N1c1ccc(C(=O)N2CC3(CCC(N4CCC5(CC4)COc4cc6c(cc4C5)C(=O)N(C4CCC(=O)NC4=O)C6=O)CC3)C2)c(F)c1 (stereo not shown) [PROTAC 73, 4-(3-(4-(7-(7′-(2,6-dioxopiperidin-3-yl)-6′,8′-dioxo-4′,6′,7′,8′-tetrahydro-2′H-spiro[piperidin-4,3′-pyrano[2,3-f]isoindol]-1-yl)-2-azaspiro[3.5]nonane-2-carbonyl)-3-fluorophenyl)-4,4-dimethyl-5-oxo-2-thioimidazolidin-1-yl)-2-(trifluoromethyl)benzonitrile]
IC50 [1]: 2490 nM | IC50 [2]: 4.53 µM

CC1(C)C(=O)N(c2ccc(C#N)c(C(F)(F)F)c2)C(=S)N1c1ccc(C(=O)N2CC[C@@H](CN3CCC4(CC3)COc3cc5c(cc3C4)C(=O)N(C3CCC(=O)NC3=O)C5=O)C2)c(F)c1 (stereo partly drawn) [PROTAC 70, 4-(3-(4-((3S)-3-((7′-(2,6-dioxopiperidin-3-yl)-6′,8′-dioxo-4′,6′,7′,8′-tetrahydro-2′H-spiro[piperidine-4,3′-pyrano[2,3-f]isoindole]-1-yl)methyl)pyrrolidine-1-carbonyl)-3-fluorophenyl)-4,4-dimethyl-5-oxo-2-thioimidazolidin-1-yl)-2-(trifluoromethyl)benzonitrile]
IC50 [1]: 9730 nM | IC50 [2]: 7.06 µM

CC(=O)c1c(C)c2cnc(Nc3ccc(N4CCN(CCOCCC(=O)N5CCC6(CCc7cc8c(cc7O6)C(=O)N(C6CCC(=O)NC6=O)C8=O)CC5)CC4)cn3)nc2n(C2CCCC2)c1=O (stereo not shown) [PROTAC 38, 1-(3-(2-(4-(6-((6-acetyl-8-cyclopentyl-5-methyl-7-oxo-7,8-dihydropyridone[2,3-d]pyrimidin-2-yl)amino)pyridin-3-yl)piperazin-1-yl)ethoxy)propionyl)-7′-(2,6-dioxopiperidin-3-yl)-3′,4′-dihydro-6′H-spiro[piperidine-4,2′-pyrano[2,3-f]isoindole]-6′,8′(7′H)-dione]
IC50 [3, 5]: 5030 nM

COc1cc(Nc2ncc3c(n2)-c2ccc(Cl)cc2C(c2c(F)cccc2OC)=NC3)ccc1C(=O)NCCOCCC(=O)N1CCC2(CCc3cc4c(cc3O2)C(=O)N(C2CCC(=O)NC2=O)C4=O)CC1 (stereo not shown) [PROTAC 5, 4-((9-chloro-7-(2-fluoro-6-methoxyphenyl)-5H-benzo[c]pyrimido[4,5-e]azepine-2-yl)amino)-N-(2-(3-(7′-(2,6-dioxopiperidin-3-yl)-6′,8′-dioxo-4′,6′,7′,8′-tetrahydro-3′H-spiro[piperidine-4,2′-pyrano[2,3-f]isoindol]-1-yl)-3-oxopropoxy)ethyl)-2-methoxybenzamide]
IC50 [3, 4]: 420 nM

CC1(C)C(=O)N(c2ccc(C#N)c(C(F)(F)F)c2)C(=S)N1c1ccc(C(=O)N2CCC(CN3CCC4(CCc5cc6c(cc5O4)C(=O)N(C4CCC(=O)NC4=O)C6=O)CC3)CC2)c(F)c1 (stereo not shown) [PROTAC 84]
IC50 [1]: 3800 nM

CC1(C)C(=O)N(c2ccc(C#N)c(C(F)(F)F)c2)C(=S)N1c1ccc(C(=O)N2CCC(CN3CCC4(CCc5cc6c(cc5O4)CN(C4CCC(=O)NC4=O)C6=O)CC3)CC2)c(F)c1 (stereo not shown) [PROTAC 72]
IC50 [1]: 7400 nM | IC50 [2]: 5.34 µM

N#Cc1ccc(O[C@H]2CC[C@H](NC(=O)c3ccc(N4CCC(CN5CCC6(CC5)Cc5cc7c(cc5O6)C(=O)N(C5CCC(=O)NC5=O)C7=O)CC4)nn3)CC2)cc1Cl (stereo partly shown) [PROTAC 66, N-((1r,4r)-4-(3-chloro-4-cyanophenoxy)cyclohexyl)-6-(4-((6-(2,6-dioxopiperidine-3-yl)-5,7-dioxo-3,5,6,7-tetrahydrospiro[furo[2,3-f]isoindole-2,4′-piperidinyl]-1′-yl)methyl)piperidin-1-yl) pyridazine-3-carboxamide]
IC50 [1]: 50 nM | IC50 [2]: 3 µM

N#Cc1ccc(O[C@H]2CC[C@H](NC(=O)c3ccc(N4CC(N5CCC6(CC5)COc5cc7c(cc5C6)C(=O)N(C5CCC(=O)NC5=O)C7=O)C4)nn3)CC2)cc1Cl (stereo partly shown) [PROTAC 64, N-((1r,4r)-4-(3-chloro-4-cyanophenoxy)cyclohexyl)-6-(3-(7′-(2,6-dioxopiperidin-3-yl)-6′,8′-dioxo-4′,6′,7′,8′-tetrahydro-2′H-spiro[piperidine-4,3′-pyran[2,3-f]isoindole]-1-yl)azetidin-1-yl]pyridazine-3-carboxamide]
IC50 [1]: 960 nM | IC50 [2]: 0.13 µM

COc1cc(Nc2ncc3c(n2)-c2ccc(Cl)cc2C(c2c(F)cccc2OC)=NC3)ccc1C(=O)NCCOCCC(=O)N1CCC2(CC1)COc1cc3c(cc1C2)C(=O)N(C1CCC(=O)NC1=O)C3=O (stereo not shown) [PROTAC 6, 4-((9-chloro-7-(2-fluoro-6-methoxyphenyl)-5H-benzo[c]pyrimido[4,5-e]azepine-2-yl)amino)-N-(2-(3-(7′-(2,6-dioxopiperidin-3-yl)-6′,8′-dioxo-4′,6′,7′,8′-tetrahydro-2′H-spiro[piperidine-4,3′-pyrano[2,3-f]isoindol]-1-yl)-3-oxopropoxy)ethyl)-2-methoxybenzamide]
IC50 [3, 4]: 320 nM

CC1(C)C(=O)N(c2ccc(C#N)c(C(F)(F)F)c2)C(=S)N1c1ccc(C(=O)N2CC3(CC(N4CCC5(CC4)COc4cc6c(cc45)C(=O)N(C4CCC(=O)NC4=O)C6=O)C3)C2)c(F)c1 (stereo not shown) [PROTAC 79, 4-(3-(4-(6-(6-(2,6-dioxopiperidin-3-yl)-5,7-dioxo-6,7-dihydro-2H,5H-spiro[furo[2,3-f]isoindole-3,4′-piperidin]-1′-yl)-2-azaspiro[3.3]heptane-2-carbonyl)-3-fluorophenyl)-4,4-dimethyl-5-oxo-2-thioimidazolidin-1-yl)-2-(trifluoromethyl)benzonitrile]
IC50 [1]: 4090 nM

CC1(C)C(=O)N(c2ccc(C#N)c(C(F)(F)F)c2)C(=S)N1c1ccc(C(=O)N2CC(N3CCC4(CC3)COc3cc5c(cc34)C(=O)N(C3CCC(=O)NC3=O)C5=O)C2)c(F)c1 (stereo not shown) [PROTAC 81, 4-(3-(4-(3-(6-(2,6-dioxopiperidin-3-yl)-5,7-dioxo-6,7-dihydro-2H,5H-spiro[furo[2,3-f]isoindole-3,4′-piperidin]-1′-yl)azetidine-1-carbonyl)-3-fluorophenyl)-4,4-dimethyl-5-oxo-2-thioimidazolidin-1-yl)-2-(trifluoromethyl)benzonitrile]
IC50 [1]: 9510 nM

CC1(C)C(=O)N(c2ccc(C#N)c(C(F)(F)F)c2)C(=S)N1c1ccc(C(=O)N2CC(CN3CCC4(CCc5cc6c(cc5O4)C(=O)N(C4CCC(=O)NC4=O)C6=O)CC3)C2)c(F)c1 (stereo not shown) [PROTAC 71]
IC50 [1]: 4570 nM

CC1(C)C(=O)N(c2ccc(C#N)c(C(F)(F)F)c2)C(=S)N1c1ccc(C(=O)N2CCC(N3CCC4(CC3)COc3cc5c(cc3C4)C(=O)N(C3CCC(=O)NC3=O)C5=O)CC2)c(F)c1 (stereo not shown) [PROTAC 78, 4-(3-(4-(4-(7′-(2,6-dioxopiperidin-3-yl)-6′,8′-dioxo-4′,6′,7′,8′-tetrahydro-2′H-spiro[piperidine-4,3′-pyrano[2,3-f]isoindol]-1-yl)piperidine-1-carbonyl)-3-fluorophenyl)-4,4-dimethyl-5-oxo-2-thioimidazolidin-1-yl)-2-(trifluoromethyl)benzonitrile]
IC50 [1]: 2700 nM
